# Source: patent US8633315B2, “Substituted hydroxyethyl amine compounds as beta-secretase modulators and methods of use” (Amgen Inc., priority 2007, dated 2014)
# What was measured:
# BACE1 = BACE1 (Homo sapiens, UniProt P56817); test: In vitro enzymatic BACE FRET (fluorescence resonance energy transfer) assay; assay type: biochemical
# How it was run: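 Fluorescence (ex 488 nm, […]) was read after Tris addition raised pH to neutral, ending a one-hour incubation. Reaction started with 50 nM fluorophore/quencher peptide substrate in pH 4.2 acetate (0.05 M) containing 100 uM genapol and 10% DMSO final.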
# [1] = tested on: Cells stably expressing Amyloid Precursor Protein (APP); test: In vitro BACE cell-based assay (HEK cell assay): Aβ40 in conditioned medium by sandwich ELISA; details: Aβ40 in conditioned medium after 24 h incubation
# How it was run: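 Secreted Aβ40 was quantified by time-resolved fluorescence sandwich ELISA, capturing with pAb40 for 3 h at 4 °C and detecting with biotinylated 6E10 for 2 h at 4 °C. Media came from APP-expressing cells exposed 24 h to compounds (10-point series from 100 or 10 μM, 0.1% DMSO); IC50 derived from percent of control.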
# BACE1, sequence (P56817 46-501, species assumed): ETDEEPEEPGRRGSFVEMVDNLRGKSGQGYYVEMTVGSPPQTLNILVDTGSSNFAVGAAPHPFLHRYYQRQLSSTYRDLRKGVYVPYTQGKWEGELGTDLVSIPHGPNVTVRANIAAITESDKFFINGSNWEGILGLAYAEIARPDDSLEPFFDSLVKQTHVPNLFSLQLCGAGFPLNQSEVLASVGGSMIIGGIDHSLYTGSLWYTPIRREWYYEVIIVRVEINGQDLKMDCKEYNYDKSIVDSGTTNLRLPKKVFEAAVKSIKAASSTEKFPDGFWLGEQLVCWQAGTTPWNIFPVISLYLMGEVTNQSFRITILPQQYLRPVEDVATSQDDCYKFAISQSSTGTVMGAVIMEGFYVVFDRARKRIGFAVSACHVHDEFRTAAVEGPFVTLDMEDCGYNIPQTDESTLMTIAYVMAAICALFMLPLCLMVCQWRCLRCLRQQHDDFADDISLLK
IC50 (BACE1),"IC50 ([1]; Homo sapiens, HEK293, 24 h)",IC50 [1],Compound,"IC50 ([1]; Homo sapiens, HEK293)"
339 nM,1460 nM,–,"C=CC[C@H](NC(=O)c1ccccc1F)[C@H](O)CN[C@H]1CC2(CCC2)Oc2ncc(CC(C)(C)C)cc21 [Example 99, N-((1S)-1-((1R)-2-(((4′S)-6′-(2,2-dimethylpropyl)-3′,4′-dihydrospiro[cyclobutane-1,2′-pyrano[2,3-b]pyridin]-4′-yl)amino)-1-hydroxyethyl)-3-buten-1-yl)-2-fluorobenzamide]",–
9880 nM,≥ 10000 nM,–,"C=C(C)C[C@H](NC(=O)c1ccc2c(c1)OC(F)(F)O2)[C@H](O)CN[C@H]1CC2(CCC2)Oc2ncc(CC(C)(C)C)cc21 [Example 101, N-((1S)-1-((1R)-2-(((4′S)-6′-(2,2-dimethylpropyl)-3′,4′-dihydrospiro[cyclobutane-1,2′-pyrano[2,3-b]pyridin]-4′-yl)amino)-1-hydroxyethyl)-3-methyl-3-buten-1-yl)-2,2-difluoro-1,3-benzodioxole-5-carboxamide]",–
75 nM,707 nM,–,"C=CC[C@H](NC(=O)c1ccc2c(c1)OCO2)[C@H](O)CN[C@H]1CC2(CCC2)Oc2ncc(CC(C)(C)C)cc21 [Example 102, N-((1S)-1-((1R)-2-(((4′S)-6′-(2,2-dimethylpropyl)-3′,4′-dihydrospiro[cyclobutane-1,2′-pyrano[2,3-b]pyridin]-4′-yl)amino)-1-hydroxyethyl)-3-buten-1-yl)-1,3-benzodioxole-5-carboxamide]",–
216 nM,2540 nM,–,"C=CC[C@H](NC(=O)c1cccc2c1OCO2)[C@H](O)CN[C@H]1CC2(CCC2)Oc2ncc(CC(C)(C)C)cc21 [Example 103, N-((1S)-1-((1R)-2-(((4′S)-6′-(2,2-dimethylpropyl)-3′,4′-dihydrospiro[cyclobutane-1,2′-pyrano[2,3-b]pyridin]-4′-yl)amino)-1-hydroxyethyl)-3-buten-1-yl)-1,3-benzodioxole-4-carboxamide]",–
154 nM,2360 nM,–,"C=CC[C@H](NC(=O)c1ccc2c(c1)OC(F)(F)O2)[C@H](O)CN[C@H]1CC2(CCC2)Oc2ncc(CC(C)(C)C)cc21 [Example 104, N-((1S)-1-((1R)-2-(((4′S)-6′-(2,2-dimethylpropyl)-3′,4′-dihydrospiro[cyclobutane-1,2′-pyrano[2,3-b]pyridin]-4′-yl)amino)-1-hydroxyethyl)-3-buten-1-yl)-2,2-difluoro-1,3-benzodioxole-5-carboxamide]",–
396 nM,1160 nM,–,"C=CC[C@H](NC(=O)OCc1cncs1)[C@H](O)CN[C@H]1CC2(CCC2)Oc2ncc(CC(C)(C)C)cc21 [Example 105, 1,3-thiazol-5-ylmethyl ((1S)-1-((1R)-2-(((4′S)-6′-(2,2-dimethylpropyl)-3′,4′-dihydrospiro[cyclobutane-1,2′-pyrano[2,3-b]pyridin]-4′-yl)amino)-1-hydroxyethyl)-3-buten-1-yl)carbamate]",–
37 nM,–,62 nM,"CC=CC[C@H](NC(C)=O)[C@H](O)CN[C@H]1CC2(CC(F)C2)Oc2ncc(CC(C)(C)C)cc21 (stereo partly drawn) [Example 109, N-((1S)-1-((1R)-2-(((1s,3S,4′S)-6′-(2,2-dimethylpropyl)-3-fluoro-3′,4′-dihydrospiro[cyclobutane-1,2′-pyrano[2,3-b]pyridin]-4′-yl)amino)-1-hydroxyethyl)-3-penten-1-yl)acetamide]",–
40 nM,–,293 nM,"CC=CC[C@H](NC(=O)COC)[C@H](O)CN[C@H]1CC2(CC(F)C2)Oc2ncc(CC(C)(C)C)cc21 (stereo partly drawn) [Example 110, N-((1S)-1-((1R)-2-(((1s,3S,4′S)-6′-(2,2-dimethylpropyl)-3-fluoro-3′,4′-dihydrospiro[cyclobutane-1,2′-pyrano[2,3-b]pyridin]-4′-yl)amino)-1-hydroxyethyl)-3-penten-1-yl)-2-(methyloxy)acetamide]",–
2 nM,28 nM,–,"C=CCC(NC(=O)C1CCC(=O)O1)C(O)CNC1CC2(CC(O)C2)Oc2ncc(CC(C)(C)C)cc21 [Example 112, (2S)-N-((1S)-1-((1R)-2-(((1s,3S,4′S)-6′-(2,2-dimethylpropyl)-3-hydroxy-3′,4′-dihydrospiro[cyclobutane-1,2′-pyrano[2,3-b]pyridin]-4′-yl)amino)-1-hydroxyethyl)-3-buten-1-yl)-5-oxotetrahydro-2-furancarboxamide]",–
335 nM,–,513 nM,"C=CCC(NC(C)=O)C(O)CNC1CC2(CC(O)C2)Oc2ccc(CC(C)(C)C)cc21 [Example 115, N-((1S)-1-((1R)-2-(((2s,3′S,4S)-6-(2,2-dimethylpropyl)-3′-hydroxy-3,4-dihydrospiro[chromene-2,1′-cyclobutan]-4-yl)amino)-1-hydroxyethyl)-3-buten-1-yl)acetamide]",–
15 nM,–,15 nM,"C=CCC(NC(C)=O)C(O)CNC1CC2(CC(O)C2)Oc2ccc(CC(C)(C)C)cc21 [Example 116, N-((1S)-1-((1R)-2-(((2r,3′R,4S)-6-(2,2-dimethylpropyl)-3′-hydroxy-3,4-dihydrospiro[chromene-2,1′-cyclobutan]-4-yl)amino)-1-hydroxyethyl)-3-buten-1-yl)acetamide]",–
419 nM,–,1290 nM,"C=CCC(NC(C)=O)C(O)CNC1CC2(CC(O)C2)Oc2ccc(Br)cc21 [Example 117, N-((1S)-1-((1R)-2-(((2r,3′R,4S)-6-bromo-3′-hydroxy-3,4-dihydrospiro[chromene-2,1′-cyclobutan]-4-yl)amino)-1-hydroxyethyl)-3-buten-1-yl)acetamide]",–
6060 nM,–,≥ 10000 nM,"C=CCC(NC(C)=O)C(O)CNC1CC2(CC(O)C2)Oc2ccc(Br)cc21 [Example 118, N-((1S)-1-((1R)-2-(((2s,3′S,4S)-6-bromo-3′-hydroxy-3,4-dihydrospiro[chromene-2,1′-cyclobutan]-4-yl)amino)-1-hydroxyethyl)-3-buten-1-yl)acetamide]",–
9300 nM,≥ 10000 nM,–,"C=CCC(NC(=O)C1CCC(=O)O1)C(O)CNC1CC2(CCC2)Oc2cnc(C(F)(F)F)cc21 [Example 119, (S)-N-((2R,3S)-1-((S)-2,2-spirocyclobutyl-6-(trifluoromethyl)-3,4-dihydro-2H-pyrano[2,3-c]pyridin-4-ylamino)-2-hydroxyhex-5-en-3-yl)-5-oxo-tetrahydrofuran-2-carboxamide]",–
194 nM,64 nM,–,"C=CC[C@H](NC(C)=O)[C@H](O)CN[C@H]1CC2(CCC2)Oc2ncc(CC(C)(F)F)cc21 [Example 120, N-((1S)-1-((1R)-2-(((4′S)-6′-(2,2-difluoropropyl)-3′,4′-dihydrospiro[cyclobutane-1,2′-pyrano[2,3-b]pyridin]-4′-yl)amino)-1-hydroxyethyl)-3-buten-1-yl)acetamide]",–
225 nM,226 nM,–,"C=CC[C@H](NC(=O)COC)[C@H](O)CN[C@H]1CC2(CCC2)Oc2ncc(CC(C)(F)F)cc21 [Example 121, N-((1S)-1-((1R)-2-(((4′S)-6′-(2,2-difluoropropyl)-3′,4′-dihydrospiro[cyclobutane-1,2′-pyrano[2,3-b]pyridin]-4′-yl)amino)-1-hydroxyethyl)-3-buten-1-yl)-2-(methyloxy)acetamide]",–
199 nM,122 nM,–,"C=CC[C@H](NC(C)=O)[C@H](O)CN[C@H]1CC2(CCC2)Oc2ncc(C[C@@H](C)C(F)(F)F)cc21 [Example 125, N-((1S)-1-((1R)-1-hydroxy-2-(((4′S)-6′-((2R)-3,3,3-trifluoro-2-methylpropyl)-3′,4′-dihydrospiro[cyclobutane-1,2′-pyrano[2,3-b]pyridin]-4′-yl)amino)ethyl)-3-buten-1-yl)acetamide]",–
316 nM,211 nM,–,"C=CC[C@H](NC(=O)COC)[C@H](O)CN[C@H]1CC2(CCC2)Oc2nc(F)c(CC(C)C)cc21 [Example 126, N-((1S)-1-((1R)-2-(((4′S)-7′-fluoro-6′-(2-methylpropyl)-3′,4′-dihydrospiro[cyclobutane-1,2′-pyrano[2,3-b]pyridin]-4′-yl)amino)-1-hydroxyethyl)-3-buten-1-yl)-2-(methyloxy)acetamide]",–
445 nM,207 nM,–,"C=CC[C@H](NC(=O)[C@@H](C)OC)[C@H](O)CN[C@H]1CC2(CCC2)Oc2nc(F)c(CC(C)C)cc21 [Example 127, (2R)-N-((1S)-1-((1R)-2-(((4′S)-7′-fluoro-6′-(2-methylpropyl)-3′,4′-dihydrospiro[cyclobutane-1,2′-pyrano[2,3-b]pyridin]-4′-yl)amino)-1-hydroxyethyl)-3-buten-1-yl)-2-(methyloxy)propanamide]",–
169 nM,1320 nM,–,"C=CC[C@H](NC(=O)c1cccs1)[C@H](O)CN[C@H]1CC2(CCC2)Oc2ncc(CC(C)(C)C)cc21 [Example 128, N-((1S)-1-((1R)-2-(((4′S)-6′-(2,2-dimethylpropyl)-3′,4′-dihydrospiro[cyclobutane-1,2′-pyrano[2,3-b]pyridin]-4′-yl)amino)-1-hydroxyethyl)-3-buten-1-yl)-2-thiophenecarboxamide]",–

Compound,IC50 (BACE1),"IC50 ([1]; Homo sapiens, HEK293, 24 h)",IC50 [1],"IC50 ([1]; Homo sapiens, HEK293)"
"C=C(C)C[C@H](NC(=O)CF)[C@H](O)CN[C@H]1CC2(CCC2)Oc2ncc(CC(C)(C)C)cc21 [Example 100, N-((1S)-1-((1R)-2-(((4′S)-6′-(2,2-dimethylpropyl)-3′,4′-dihydrospiro[cyclobutane-1,2′-pyrano[2,3-b]pyridin]-4′-yl)amino)-1-hydroxyethyl)-3-methyl-3-buten-1-yl)-2-fluoroacetamide]",3650 nM,–,–,3330 nM
"C=CCC(NC(=O)CF)C(O)CNC1CC2(CC(O)C2)Oc2ncc(CC(C)(C)C)cc21 [Example 111, N-((1S)-1-((1R)-2-(((1s,3S,4′S)-6′-(2,2-dimethylpropyl)-3-hydroxy-3′,4′-dihydrospiro[cyclobutane-1,2′-pyrano[2,3-b]pyridin]-4′-yl)amino)-1-hydroxyethyl)-3-buten-1-yl)-2-fluoroacetamide]",20 nM,–,–,65 nM
